Assays:
[1] = system: TC32 Ewing sarcoma cell line; experiment: 72 hour cytotoxicity, TC32; type: cell-based; settings: Ewing sarcoma cell line TC32, 72 hour; read-out: IC50 (nM) TC 32
Procedure: (§1) The cytotoxicity of a subgroup of the MTM SA analogues was tested against various Ewing sarcoma cell lines and non-Ewing sarcoma cell lines over a 72 hour period. Each analogue was checked individually with a range of concentrations to determine the IC50 of the molecule in actively growing cell cultures.

[2] = system: 5838 Ewing sarcoma cell line; experiment: 72 hour cytotoxicity, 5838; type: cell-based; settings: Ewing sarcoma cell line 5838, 72 hour
Procedure: as §1

[3] = system: SK-ES-1 Ewing sarcoma cell line; experiment: 72 hour cytotoxicity, SK-ES-1; type: cell-based; settings: Ewing sarcoma cell line SK-ES-1, 72 hour
Procedure: as §1

[4] = system: TC71 Ewing sarcoma cell line; experiment: 72 hour cytotoxicity, TC71; type: cell-based; settings: Ewing sarcoma cell line TC71, 72 hour
Procedure: as §1

[5] = system: ES-2 Ewing sarcoma cell line; experiment: 72 hour cytotoxicity, ES-2; type: cell-based; settings: Ewing sarcoma cell line ES-2, 72 hour
Procedure: as §1

[6] = system: ES-3 Ewing sarcoma cell line; experiment: 72 hour cytotoxicity, ES-3; type: cell-based; settings: Ewing sarcoma cell line ES-3, 72 hour
Procedure: as §1

[7] = system: ES-4 Ewing sarcoma cell line; experiment: 72 hour cytotoxicity, ES-4; type: cell-based; settings: Ewing sarcoma cell line ES-4, 72 hour
Procedure: as §1

[8] = system: ES-7 Ewing sarcoma cell line; experiment: 72 hour cytotoxicity, ES-7; type: cell-based; settings: Ewing sarcoma cell line ES-7, 72 hour
Procedure: as §1

[9] = system: ES-8 Ewing sarcoma cell line; experiment: 72 hour cytotoxicity, ES-8; type: cell-based; settings: Ewing sarcoma cell line ES-8, 72 hour
Procedure: as §1

[10] = system: A549, human non-small cell lung cancer cells; experiment: 72 hour cytotoxicity, A549 (resazurin); type: cell-based; settings: non-Ewing sarcoma cell line A549, 72 hour
Procedure: The cytotoxic effects of the side chain modifications of SA were investigated in order to determine whether the modification were beneficial to the drug structure. All cytotoxicity assays were performed with A549, human non-small cell lung cancer cells. A549 cells were cultured as specified from ATCC at 37° C., 5% CO2. The cells were added to a 96 well plate (5,000 cells/well) and permitted to attach for 24 h. After 24 h culture media were replaced with the side chain modified MTM SA derivative containing media at differing concentrations. The cells were incubated with the drug containing media for 72 hrs total (n=8). Cell viability was determined using a resazurin assay that signifies mitochondrial metabolic activity in living cells. […] of a 1 mM resazurin solution in PBS was added to the control and analogue-treated cells at the end of the treatment period. Cell viability was determined three hours later by reading the fluorescence at 560 nm (Ex)/590 nm (Em). The fluorescence signals were quantified using a Spectramax M5 plate reader (Molecular Devices) equipped with a SoftMaxPro software. Cytotoxicity was determined by calculating the half maximal inhibitory concentration (IC50) of each sample.
as §1

[11] = system: U118 non-Ewing sarcoma cell line; experiment: 72 hour cytotoxicity, U118; type: cell-based; settings: non-Ewing sarcoma cell line U118, 72 hour
Procedure: as §1

[12] = system: several cancer cell lines; settings: cited from earlier work
[13] = system: Ewing sarcoma (TC32, 5838, SKES1) and non-Ewing (A459 (lung) and PC3 (prostate)) cancer cell lines; experiment: Selectivity assay, Ewing sarcoma versus non-Ewing cell panel (72 hr cytotoxicity)

**Q.** With `COc1ccc2[nH]cc(CCNC(=O)[C@@H](OC)[C@@H]3Cc4cc5cc(OC6CC(OC7CC(O)C(O)C(C)O7)C(O)C(C)O6)c(C)c(O)c5c(O)c4C(=O)[C@H]3OC3CC(OC4CC(OC5CC(C)(O)C(O)C(C)O5)C(O)C(C)O4)C(O)C(C)O3)c2c1` (stereo partly drawn) [MTMSA-5-OMe Trypamine] as the compound, how does the IC50 [1] read?
**A.** 73 nM

**Q.** And the IC50 [2]?
**A.** 78 nM

**Q.** And the IC50 [3]?
**A.** 63 nM

**Q.** What about the IC50 [4] of the same compound?
**A.** 58 nM

**Q.** What about the IC50 [5] of the same compound?
**A.** 84 nM

**Q.** And the IC50 [6]?
**A.** 157 nM

**Q.** What about the IC50 [7] of the same compound?
**A.** 63 nM

**Q.** And the IC50 [8]?
**A.** 79 nM

**Q.** What about the IC50 [9] of the same compound?
**A.** 75 nM

**Q.** What about the IC50 [10] of the same compound?
**A.** 84 nM

**Q.** And the IC50 [11]?
**A.** 58 nM

**Q.** Which “activity compared to the parent MTM” value [12] does the source give for `CO[C@H](C(=O)C(C)=O)[C@@H]1Cc2cc3cc(OC4C[C@@H](OC5C[C@@H](O)[C@H](O)C(C)O5)[C@H](O)C(C)O4)c(C)c(O)c3c(O)c2C(=O)[C@H]1OC1C[C@@H](OC2C[C@@H](OC3C[C@](C)(O)[C@H](O)C(C)O3)[C@@H](O)C(C)O2)[C@H](O)C(C)O1` (stereo partly drawn) [MTM SDK] here?
**A.** increased activity

**Q.** For `COC(=O)[C@@H](OC)[C@@H]1Cc2cc3cc(OC4CC(OC5CC(O)C(O)C(C)O5)C(O)C(C)O4)c(C)c(O)c3c(O)c2C(=O)[C@H]1OC1CC(OC2CC(OC3CC(C)(O)C(O)C(C)O3)C(O)C(C)O2)C(O)C(C)O1` (stereo partly drawn) [MTMSA-Me ester], which IC50 [1] is on record?
**A.** 67 nM

**Q.** And the IC50 [2]?
**A.** 193 nM

**Q.** And the IC50 [3]?
**A.** 86 nM

**Q.** What about the IC50 [4] of the same compound?
**A.** 46 nM

**Q.** What about the IC50 [5] of the same compound?
**A.** 76 nM

**Q.** What about the IC50 [6] of the same compound?
**A.** 90 nM

**Q.** And the IC50 [7]?
**A.** 41 nM

**Q.** What about the IC50 [8] of the same compound?
**A.** 51 nM

**Q.** What about the IC50 [9] of the same compound?
**A.** 47 nM

**Q.** What about the IC50 [10] of the same compound?
**A.** 99 nM

**Q.** And the IC50 [11]?
**A.** 38 nM

**Q.** For `COC(=O)[C@H](C)NC(=O)[C@@H](OC)[C@@H]1Cc2cc3cc(OC4CC(OC5CC(O)C(O)C(C)O5)C(O)C(C)O4)c(C)c(O)c3c(O)c2C(=O)[C@H]1OC1CC(OC2CC(OC3CC(C)(O)C(O)C(C)O3)C(O)C(C)O2)C(O)C(C)O1` (stereo partly drawn) [MTM SA-Ala], which “selectivity against Ewing sarcoma cells relative to non-Ewing cells” value ([13]; FIG. 9, right panel) is on record?
**A.** 9 fold

**Q.** What about the “less potent than MTM” value ([13]; against Ewing sarcoma cells, relative to MTM) of the same compound?
**A.** about 200 fold

**Q.** And the “higher selectivity than MTM against Ewing sarcoma relative to non-Ewing cell lines” value ([13]; relative to MTM, 72 hr)?
**A.** 3 fold

**Q.** With `CO[C@H](C(=O)NCCc1c[nH]c2ccc(O)cc12)[C@@H]1Cc2cc3cc(OC4CC(OC5CC(O)C(O)C(C)O5)C(O)C(C)O4)c(C)c(O)c3c(O)c2C(=O)[C@H]1OC1CC(OC2CC(OC3CC(C)(O)C(O)C(C)O3)C(O)C(C)O2)C(O)C(C)O1` (stereo partly drawn) [MTMSA-Serotonin] as the compound, how does the IC50 [1] read?
**A.** 667 nM

**Q.** What about the IC50 [2] of the same compound?
**A.** 690 nM

**Q.** And the IC50 [3]?
**A.** 612 nM

**Q.** And the IC50 [4]?
**A.** 671 nM

**Q.** And the IC50 [5]?
**A.** 749 nM

**Q.** What about the IC50 [6] of the same compound?
**A.** 658 nM

**Q.** What about the IC50 [7] of the same compound?
**A.** 610 nM

**Q.** What about the IC50 [8] of the same compound?
**A.** 753 nM

**Q.** What about the IC50 [9] of the same compound?
**A.** 676 nM

**Q.** And the IC50 [10]?
**A.** > 3000 nM

**Q.** What about the IC50 [11] of the same compound?
**A.** 916 nM

**Q.** With `COC(=O)[C@H](Cc1ccc(O)cc1)NC(=O)[C@@H](OC)[C@@H]1Cc2cc3cc(OC4CC(OC5CC(O)C(O)C(C)O5)C(O)C(C)O4)c(C)c(O)c3c(O)c2C(=O)[C@H]1OC1CC(OC2CC(OC3CC(C)(O)C(O)C(C)O3)C(O)C(C)O2)C(O)C(C)O1` (stereo partly drawn) [MTMSA-Tyr] as the compound, how does the IC50 [1] read?
**A.** 133 nM

**Q.** What about the IC50 [2] of the same compound?
**A.** 170 nM

**Q.** What about the IC50 [3] of the same compound?
**A.** 306 nM

**Q.** And the IC50 [4]?
**A.** 130 nM

**Q.** And the IC50 [5]?
**A.** 263 nM

**Q.** And the IC50 [6]?
**A.** 266 nM

**Q.** And the IC50 [7]?
**A.** 138 nM

**Q.** And the IC50 [8]?
**A.** 189 nM

**Q.** And the IC50 [9]?
**A.** 171 nM

**Q.** And the IC50 [10]?
**A.** 867 nM

**Q.** And the IC50 [11]?
**A.** 231 nM

**Q.** For `CO[C@H](C(=O)NCCc1c[nH]c2ccccc12)[C@@H]1Cc2cc3cc(OC4CC(OC5CC(O)C(O)C(C)O5)C(O)C(C)O4)c(C)c(O)c3c(O)c2C(=O)[C@H]1OC1CC(OC2CC(OC3CC(C)(O)C(O)C(C)O3)C(O)C(C)O2)C(O)C(C)O1` (stereo partly drawn) [MTMSA-Tryptamine], which IC50 [1] is on record?
**A.** 110 nM

**Q.** And the IC50 [2]?
**A.** 439 nM

**Q.** What about the IC50 [3] of the same compound?
**A.** 226 nM

**Q.** And the IC50 [4]?
**A.** 78 nM

**Q.** What about the IC50 [5] of the same compound?
**A.** 155 nM

**Q.** What about the IC50 [6] of the same compound?
**A.** 216 nM

**Q.** And the IC50 [7]?
**A.** 90 nM

**Q.** What about the IC50 [8] of the same compound?
**A.** 86 nM

**Q.** What about the IC50 [9] of the same compound?
**A.** 97 nM

**Q.** And the IC50 [10]?
**A.** 196 nM

**Q.** What about the IC50 [11] of the same compound?
**A.** 76 nM

**Q.** Which “activity compared to the parent MTM” value [12] does the source give for `COC(C(=O)O)[C@@H]1Cc2cc3cc(OC4CC(OC5CC(O)C(O)C(C)O5)C(O)C(C)O4)c(C)c(O)c3c(O)c2C(=O)[C@H]1OC1CC(OC2CC(OC3CC(C)(O)C(O)C(C)O3)C(O)C(C)O2)C(O)C(C)O1` (stereo partly drawn) [MTM SA, mithramycin side chain carboxylic acid] here?
**A.** significantly decreased activity
